Reference: ChEMBL document CHEMBL3399997 (Bioorg Med Chem Lett, 2015)

Columns and labels:
Assay type in all cases: physicochemical
[1] = Antioxidant activity assessed as superoxide anion radical scavenging activity by measuring relative rate constant (kAOx/kST ratio) using CYPMPO spin trap by ESR spin-trapping method
[2] = Antioxidant activity assessed as singlet oxygen radical scavenging activity by measuring relative rate constant (kAOx/kST ratio) using 4-HO-TEMP spin trap by ESR spin-trapping method
[3] = Antioxidant activity assessed as rate constant for alkoxyl radical scavenging activity using DMPO spin trap by ESR spin-trapping method
[4] = Antioxidant activity assessed as hydroxyl radical scavenging activity by measuring relative rate constant (kAOx/kST ratio) using DMPO spin trap by ESR spin-trapping method
[5] = Antioxidant activity assessed as rate constant for singlet oxygen radical scavenging activity using 4-HO-TEMP spin trap by ESR spin-trapping method
[6] = Antioxidant activity assessed as rate constant for superoxide anion radical scavenging activity using CYPMPO spin trap by ESR spin-trapping method
[7] = Antioxidant activity assessed as methyl radical scavenging activity by measuring relative rate constant (kAOx/kST ratio) using DMPO spin trap by ESR spin-trapping method
[8] = Antioxidant activity assessed as rate constant for hydroxyl radical scavenging activity using DMPO spin trap by ESR spin-trapping method
[9] = Antioxidant activity assessed as peroxyl radical scavenging activity by measuring relative rate constant (kAOx/kST ratio) using CYPMPO spin trap by ESR spin-trapping method
[10] = Antioxidant activity assessed as rate constant for methyl radical scavenging activity using DMPO spin trap by ESR spin-trapping method
[11] = Antioxidant activity assessed as alkoxyl radical scavenging activity by measuring relative rate constant (kAOx/kST ratio) using DMPO spin trap by ESR spin-trapping method

Row | SMILES | Ratio [1] | Ratio [2] | K [3] [×10⁴ /M/s] | Ratio [4] | K [5] | K [6] | Ratio [7] | K [8] | Ratio [9] | K [10] [×10⁷ /M/s] | Ratio [11]
1 | NC(Cc1ccc(O)c(O)c1)C(=O)O (racemic) | 687 | 84.4 | 3.57 | 14.7 | 7.59 ×10⁶ /M/s | 3.3 ×10⁴ /M/s | 1.82 | 4.11 ×10¹⁰ /M/s | 32.5 | 2.55 | 28.1
2 | N[C@@H](Cc1ccc(O)c(O)c1)C(=O)O [LEVODOPA] | 4308 | 215 | 3.48 | 0.91 | 1.93 ×10⁷ /M/s | 2.07 ×10⁵ /M/s | 1.85 | 2.55 ×10⁹ /M/s | 19.3 | 2.59 | 27.4
